Reference: patent US8461160B2, “Dihydropyrimidinones” (Hoffmann-La Roche, Inc., priority 2009, dated 2013)

Target: T1, BACE2 (Homo sapiens, UniProt Q9Y5Z0)
T1 construct: BACE2 enzyme ectodomain (derived from plasmid “pET17b-T7-hu proBACE2”) was prepared as described in Ostermann et al; T7 tag (N); made in house
T1 sequence (Q9Y5Z0 21-473 limits assumed): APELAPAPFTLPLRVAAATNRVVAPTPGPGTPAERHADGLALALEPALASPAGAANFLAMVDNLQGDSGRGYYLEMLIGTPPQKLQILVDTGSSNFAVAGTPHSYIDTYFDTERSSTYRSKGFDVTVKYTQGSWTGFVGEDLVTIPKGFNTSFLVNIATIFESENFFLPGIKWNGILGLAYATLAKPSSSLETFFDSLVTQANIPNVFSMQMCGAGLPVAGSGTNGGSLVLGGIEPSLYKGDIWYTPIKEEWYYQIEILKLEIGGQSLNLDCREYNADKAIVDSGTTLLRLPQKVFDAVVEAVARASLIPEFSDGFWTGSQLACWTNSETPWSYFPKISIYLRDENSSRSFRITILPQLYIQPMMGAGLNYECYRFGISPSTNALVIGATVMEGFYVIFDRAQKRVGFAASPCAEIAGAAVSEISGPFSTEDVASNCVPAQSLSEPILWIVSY
Assay: Fluorescent-peptide cleavage assay for BACE2 inhibition
Format: biochemical
Details: BACE2 enzyme ectodomain, fluorescent peptide WS EVNLD AEFRC-MR121, assay buffer pH 4.5, room temperature
Outline: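 Pro-enzyme BACE2 was activated at 80 nM for 1 h at room temperature in 100 mM Na-acetate, 20 mM EDTA, 0.05% BSA, pH 4.5, then preincubated 10 min with compound. IC50 from sigmoidal dose-response fit.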

| IC50 | SMILES |
| --- | --- |
| 10 nM | CN1C(=O)C[C@@](C)(c2cccc(NC(=O)c3ccc(C#N)cn3)c2)N=C1N [Example 15, 5-Cyano-pyridine-2-carboxylic acid [3-((S)-2-amino-1,4-dimethyl-6-oxo-1,4,5,6-tetrahydro-pyrimidin-4-yl)-phenyl]amide] |
| 36 nM | CN1C(=O)C(C)(C)[C@@](C)(c2cc(NC(=O)c3ccc(Cl)cn3)ccc2Cl)N=C1N [Example 126, 5-Chloro-pyridine-2-carboxylic acid [3-((S)-2-amino-1,4,5,5-tetramethyl-6-oxo-1,4,5,6-tetrahydro-pyrimidin-4-yl)-4-chloro-phenyl]amide] |
| 42 nM | C[C@@]1(c2cccc(NC(=O)c3ccc(Cl)cn3)c2)CC(=O)N(CC2CC2)C(N)=N1 [Example 124, 5-Chloro-pyridine-2-carboxylic acid [3-((S)-2-amino-1-cyclopropylmethyl-4-methyl-6-oxo-1,4,5,6-tetrahydro-pyrimidin-4-yl)-phenyl]amide] |
| 350 nM | CN1C(=O)C(O)[C@@](C)(c2cc(NC(=O)c3ccccn3)ccc2F)N=C1N (stereo partly drawn) [Example 123, Pyridine-2-carboxylic acid [3-((R)-2-amino-5-hydroxy-1,4-dimethyl-6-oxo-1,4,5,6-tetrahydro-pyrimidin-4-yl)-4-fluoro-phenyl]amide] |
| 160 nM | CN1C(=O)C[C@]2(CCc3ccc(NC(=O)c4ccc(Cl)cn4)cc32)N=C1N [Example 127, N-[(1S)-2′-amino-1′-methyl-6′-oxo-2,3,5′,6′-tetrahydro-1′H-spiro[indene-1,4′-pyrimidin]-6-yl]-5-chloropyridine-2-carboxamide] |
| 240 nM | CN1C(=O)C[C@@](C)(c2cccc(NC(=O)c3ncccc3Sc3ccccc3)c2)N=C1N [Example 61, 3-Phenylsulfanyl-pyridine-2-carboxylic acid [3-((S)-2-amino-1,4-dimethyl-6-oxo-1,4,5,6-tetrahydro-pyrimidin-4-yl)-phenyl]-amide] |
| 7 nM | CC[C@@]1(c2cccc(NC(=O)c3ncc(Cl)cn3)c2)CC(=O)N(C)C(N)=N1 [Example 44, 5-Chloro-pyrimidine-2-carboxylic acid [3-((S)-2-amino-4-ethyl-1-methyl-6-oxo-1,4,5,6-tetrahydro-pyrimidin-4-yl)-phenyl]-amide] |
| 58 nM | CN1C(=O)C[C@@](C)(c2cccc(NC(=O)c3ccc(=O)[nH]n3)c2)N=C1N [Example 23, 6-Oxo-1,6-dihydro-pyridazine-3-carboxylic acid [3-((S)-2-amino-1,4-dimethyl-6-oxo-1,4,5,6-tetrahydro-pyrimidin-4-yl)-phenyl]amide] |
| 102 nM | CN1C(=O)C[C@@](C)(c2cccc(NC(=O)c3cc4ccccc4s3)c2)N=C1N [Example 68, Benzo[b]thiophene-2-carboxylic acid [3-((S)-2-amino-1,4-dimethyl-6-oxo-1,4,5,6-tetrahydro-pyrimidin-4-yl)-phenyl]-amide] |
| 17 nM | C[C@H]1C(=O)N(C)C(N)=N[C@]1(C)c1cccc(NC(=O)c2ccc(Cl)cn2)c1 [Example 91, 5-Chloro-pyridine-2-carboxylic acid [3-((4S,5R)-2-amino-1,4,5-trimethyl-6-oxo-1,4,5,6-tetrahydro-pyrimidin-4-yl)-phenyl]amide] |
| 1780 nM | CCC[C@@]1(c2cccc(NC(=O)c3ccccn3)c2)CC(=O)N(C)C(N)=N1 [Example 88, Pyridine-2-carboxylic acid [3-((S)-2-amino-1-methyl-6-oxo-4-propyl-1,4,5,6-tetrahydro-pyrimidin-4-yl)-phenyl]-amide] |
| 52 nM | Cc1ccc(C(=O)Nc2ccc(F)c([C@@]3(C)N=C(N)N(C)C(=O)C3(C)C)c2)s1 [Example 102, 5-Methyl-thiophene-2-carboxylic acid [3-((S)-2-amino-1,4,5,5-tetramethyl-6-oxo-1,4,5,6-tetrahydro-pyrimidin-4-yl)-4-fluoro-phenyl]amide] |
| 1520 nM | CN1C(=O)C[C@@](C)(c2cccc(NC(=O)c3nc(Cl)ccc3C(F)(F)F)c2)N=C1N [Example 72, 6-Chloro-3-trifluoromethyl-pyridine-2-carboxylic acid [3-((S)-2-amino-1,4-dimethyl-6-oxo-1,4,5,6-tetrahydro-pyrimidin-4-yl)-phenyl]-amide] |
| 60 nM | CN1C(=O)C[C@@](C)(c2cccc(NC(=O)c3ncc(Cl)cc3Cl)c2)N=C1N [Example 64, 3,5-Dichloro-pyridine-2-carboxylic acid [3-((S)-2-amino-1,4-dimethyl-6-oxo-1,4,5,6-tetrahydro-pyrimidin-4-yl)-phenyl]-amide] |
| 17 nM | CN1C(=O)C(C)(C)[C@@](C)(c2cc(NC(=O)c3ccn(C(F)F)n3)ccc2F)N=C1N [Example 121, 1-Difluoromethyl-1H-pyrazole-3-carboxylic acid [3-((S)-2-amino-1,4,5,5-tetramethyl-6-oxo-1,4,5,6-tetrahydro-pyrimidin-4-yl)-4-fluoro-phenyl]amide] |
| 1100 nM | CN1C(=O)C[C@@](C)(c2cccc(NC(=O)c3cccnc3)c2)N=C1N [Example 33, N-[3-((S)-2-Amino-1,4-dimethyl-6-oxo-1,4,5,6-tetrahydro-pyrimidin-4-yl)-phenyl]-nicotinamide] |
| 300 nM | CC[C@@]1(c2cccc(NC(=O)c3ccc(F)cn3)c2)CC(=O)N(C)C(N)=N1 [Example 85, 5-Fluoro-pyridine-2-carboxylic acid [3-((S)-2-amino-4-ethyl-1-methyl-6-oxo-1,4,5,6-tetrahydro-pyrimidin-4-yl)-phenyl]-amide] |
| 1580 nM | Cc1nn(C)cc1C(=O)Nc1cccc([C@]2(C)CC(=O)N(C)C(N)=N2)c1 [Example 77, 1,3-Dimethyl-1H-pyrazole-4-carboxylic acid [3-((S)-2-amino-1,4-dimethyl-6-oxo-1,4,5,6-tetrahydro-pyrimidin-4-yl)-phenyl]-amide] |
| 1340 nM | CN1C(=O)C[C@]2(CCc3ccc(NC(=O)c4ncccc4C(F)(F)F)cc32)N=C1N [Example 130, N-[(1S)-2′-amino-1′-methyl-6′-oxo-2,3,5′,6′-tetrahydro-1′H-spiro[indene-1,4′-pyrimidin]-6-yl]-3-trifluoromethyl-pyridine-2-carboxamide] |
| 63 nM | CN1C(=O)C(C)(C)[C@@](C)(c2cc(NC(=O)c3ccc(C#N)cn3)ccc2F)N=C1N [Example 115, 5-Cyano-pyridine-2-carboxylic acid [3-((S)-2-amino-1,4,5,5-tetramethyl-6-oxo-1,4,5,6-tetrahydro-pyrimidin-4-yl)-4-fluoro-phenyl]amide] |
| 25 nM | CN1C(=O)C(C)(C)[C@@](C)(c2cc(NC(=O)c3ccc(OC(F)F)cn3)ccc2F)N=C1N [Example 103, 5-Difluoromethoxy-pyridine-2-carboxylic acid [3-((S)-2-amino-1,4,5,5-tetramethyl-6-oxo-1,4,5,6-tetrahydro-pyrimidin-4-yl)-4-fluoro-phenyl]amide] |
| 310 nM | CN1C(=O)C[C@@](C)(c2ccc(F)c(NC(=O)c3ccc(Cl)cn3)c2)N=C1N [Example 125, 5-Chloro-pyridine-2-carboxylic acid [5-((S)-2-amino-1,4-dimethyl-6-oxo-1,4,5,6-tetrahydro-pyrimidin-4-yl)-2-fluoro-phenyl]amide] |
| 121 nM | Cc1nc(C)c(C(=O)Nc2cccc([C@]3(C)CC(=O)N(C)C(N)=N3)c2)o1 [Example 5, 2,4-Dimethyl-oxazole-5-carboxylic acid [3-((S)-2-amino-1,4-dimethyl-6-oxo-1,4,5,6-tetrahydro-pyrimidin-4-yl)-phenyl]amide] |
| 14 nM | CN1C(=O)C[C@@](C)(c2cccc(NC(=O)c3ccc(Cl)s3)c2)N=C1N [Example 2, 5-Chloro-thiophene-2-carboxylic acid [3-((S)-2-amino-1,4-dimethyl-6-oxo-1,4,5,6-tetrahydro-pyrimidin-4-yl)-phenyl]amide] |
| 370 nM | CN1C(=O)C(C)(C)[C@@](C)(c2cccc(NC(=O)c3nccc4ccsc34)c2)N=C1N [Example 96, Thieno[2,3-c]pyridine-7-carboxylic acid [3-((R)-2-amino-1,4,5,5-tetramethyl-6-oxo-1,4,5,6-tetrahydro-pyrimidin-4-yl)-phenyl]amide] |
| 458 nM | CN1C(=O)C[C@@](C)(c2cccc(NC(=O)c3ccc(CO)cn3)c2)N=C1N [Example 16, 5-Hydroxymethyl-pyridine-2-carboxylic acid [3-((S)-2-amino-1,4-dimethyl-6-oxo-1,4,5,6-tetrahydro-pyrimidin-4-yl)-phenyl]amide] |
| 1110 nM | CCC[C@@]1(c2cccc(NC(=O)c3coc(C)n3)c2)CC(=O)N(C)C(N)=N1 [Example 90, 2-Methyl-oxazole-4-carboxylic acid [3-((S)-2-amino-1-methyl-6-oxo-4-propyl-1,4,5,6-tetrahydro-pyrimidin-4-yl)-phenyl]-amide] |
| 35 nM | CN1C(=O)C(C)(C)[C@@](C)(c2cc(NC(=O)c3ccn(C)n3)ccc2F)N=C1N [Example 98, 1-Methyl-1H-pyrazole-3-carboxylic acid [3-((S)-2-amino-1,4,5,5-tetramethyl-6-oxo-1,4,5,6-tetrahydro-pyrimidin-4-yl)-4-fluoro-phenyl]amide] |
